The subject of one experiment is Wnt signaling. The experiment in a line: TopFlash reporter gene bioassay in SW480 cells. The format is cell-based. The conditions noted are these: Homo sapiens, SW480, 24 h, SW480 cells, 24 hours treatment, luciferase assay; read-out: IC50 for SW480 cells, TopFlash reporter gene bioassay. In general terms: In a reporter assay the amount or activity of a reporter protein is the signal.
For orientation: IC50 means the point on the concentration scale where inhibition reaches its midpoint. Consider `C=CCN1CC(=O)N2[C@@H](Cc3ccc(O)cc3)C(=O)N(Cc3cccc(Br)c3)C[C@@H]2N1C(=O)NCc1ccccc1` [Compound F], for which the IC50 is 0.73 ± 0.08 µM.

Staying with this experiment, now noted: Homo sapiens, SW480, TopFlash reporter gene assay, inhibition of Wnt signaling; read-out: RGA, IC50 (μM) TopF.
`C=CCN1CC(=O)N2[C@@H](Cc3ccc(O)cc3)C(=O)N(Cc3csc4c(NC(=O)OC)cccc34)C[C@@H]2N1C(=O)NCc1ccccc1` [compound 167]: the IC50 was found to be 19.4 ± 3.4 µM.
Turning to `C=CCN1CC(=O)N2[C@@H](Cc3ccc(O)cc3)C(=O)N(Cc3csc4c(NC(C)=O)cccc34)C[C@@H]2N1C(=O)NCc1ccccc1` [compound 250], the half-maximal inhibitory concentration (IC50) was found to be 6.98 ± 1.45 µM.
Same read-out and setting: then `C=CCN1CC(=O)N2[C@@H](Cc3ccc(O)cc3)C(=O)N(Cc3ccccc3SC)C[C@@H]2N1C(=O)NCc1ccccc1` [compound 17], with 0.42 ± 0.04 µM; and `C=CCN1CC(=O)N2[C@@H](Cc3ccc(O)cc3)C(=O)N(Cc3cccc(NS(N)(=O)=O)c3)C[C@@H]2N1C(=O)NCc1ccccc1` [compound 243], with 5.81 ± 0.58 µM.
Consider `C=CCN1CC(=O)N2[C@@H](Cc3ccc(O)cc3C)C(=O)N(Cc3ccc(F)cc3F)C[C@@H]2N1C(=O)NCc1ccccc1` [compound 196], for which the IC50 amounted to 21.2 ± 2.15 µM.
Turning to `C=CCN1CC(=O)N2[C@@H](Cc3ccc(OS(N)(=O)=O)cc3)C(=O)N(Cc3cccc4c(C(C)=O)c[nH]c34)C[C@@H]2N1C(=O)NCc1ccccc1` [compound 29], the IC50 turned out to be 0.53 ± 0.24 µM.
Consider `C=CCN1CC(=O)N2[C@@H](Cc3ccc(O)cc3)C(=O)N(Cc3ccc(C(C)(C)C)cc3)C[C@@H]2N1C(=O)NCc1ccccc1` [compound 236], for which the IC50 was determined as 41.7 ± 4.2 µM.
Still for that read-out and setting: for `C=CCN1CC(=O)N2[C@@H](Cc3ccc(O)cc3)C(=O)N(Cc3cccc(-c4cccc(NC(C)=O)c4)c3)C[C@@H]2N1C(=O)NCc1ccccc1` [compound 18] the value was 0.42 ± 0.12 µM; for `C=CCN1CC(=O)N2[C@@H](Cc3ccc(O)cc3)C(=O)N(Cc3ccc4ncoc4c3)C[C@@H]2N1C(=O)NCc1ccccc1` [compound 228], 4.51 ± 0.72 µM.
Still for that read-out and setting: for `C=CCN1CC(=O)N2[C@@H](CC3=CC(=O)NC3=O)C(=O)N(Cc3cccc4scnc34)C[C@@H]2N1C(=O)NCc1ccccc1` [compound 192] the value was 2.85 ± 0.79 µM; for `C=CCN1CC(=O)N2[C@@H](Cc3ccc(O)cc3)C(=O)N(Cc3cccc(C(=O)N4CCCCC4)c3)C[C@@H]2N1C(=O)NCc1ccccc1` [compound 114], 1.42 ± 0.51 µM; for `C=CCN1CC(=O)N2[C@@H](Cc3ccc(O)cc3)C(=O)N(Cc3ccccc3Sc3ccc(Cl)cc3)C[C@@H]2N1C(=O)NCc1ccccc1` [compound 219], 3.97 ± 0.57 µM.
With `C=CCN1CC(=O)N2[C@@H](Cc3ccc(O)cc3)C(=O)N(Cc3cccc4c3ncn4CC(N)=O)C[C@@H]2N1C(=O)NCc1ccccc1` [compound 267], the half-maximal inhibitory concentration (IC50) stood at 6.63 ± 1.35 µM.
`C=CCN1CC(=O)N2[C@@H](Cc3ccc(O)cc3)C(=O)N(Cc3cccc(C(N)=O)n3)C[C@@H]2N1C(=O)NCc1ccccc1` [compound 168]: the IC50 was 2.01 ± 0.2 µM.
As to `C=CCN1CC(=O)N2[C@@H](Cc3ccc(O)cc3)C(=O)N(Cc3cccc(C(=O)NCCC4=CCCCC4)c3)C[C@@H]2N1C(=O)NCc1ccccc1` [compound 130], the half-maximal inhibitory concentration (IC50) came out at 1.66 ± 0.18 µM.
`C=CCN1CC(=O)N2[C@@H](Cc3ccc(O)cc3)C(=O)N(Cc3ccc(F)c4scnc34)C[C@@H]2N1C(=O)NCc1ccc(OC)c(OC)c1` [compound 224]: the half-maximal inhibitory concentration (IC50) was found to be 4.3 ± 0.7 µM.
`C=CCN1CC(=O)N2[C@@H](Cc3ccc(OS(=O)(=O)NC)cc3)C(=O)N(Cc3ccc(F)cc3F)C[C@@H]2N1C(=O)NCc1ccccc1` [compound 151]: the IC50 was found to be 10.2 ± 2.3 µM.
For `C=CCN1CC(=O)N2[C@@H](Cc3ccc(O)cc3)C(=O)N(Cc3ccc(F)c4scnc34)C[C@@H]2N1C(=O)NCc1cccs1` [compound 107], the concentration for half-maximal inhibition (IC50) stood at 1.3 ± 0.2 µM.
On the same count and under the same terms, for `CN1CC(=O)N2[C@@H](Cc3ccc(O)cc3)C(=O)N(Cc3cccc4scnc34)C[C@@H]2N1C(=O)NCc1ccccc1` [compound 232] the value was 4.97 ± 0.73 µM; for `C=CCN1CC(=O)N2[C@@H](Cc3ccc(O)cc3)C(=O)N(Cc3cccc(-c4ccc(F)nc4)c3)C[C@@H]2N1C(=O)NCc1ccccc1` [compound 33], 0.56 ± 0.44 µM.
For `C=CCN1CC(=O)N2[C@@H](Cc3ccc(O)cc3F)C(=O)N(Cc3ccc(F)cc3F)C[C@@H]2N1C(=O)NCc1ccccc1` [compound 74], the IC50 was 0.91 ± 0.11 µM.
For the compound `C=CCN1CC(=O)N2[C@@H](Cc3ccc(O)cc3)C(=O)N(Cc3cccc(-c4ccccc4OC)n3)C[C@@H]2N1C(=O)NCc1ccccc1` [compound 81], the IC50 stood at 0.97 ± 0.18 µM.
For the compound `C=CCN1CC(=O)N2[C@@H](Cc3ccc(O)cc3)C(=O)N(Cc3cccc(C(=O)NC)c3[N+](=O)[O-])C[C@@H]2N1C(=O)NCc1ccccc1` [compound 258], the half-maximal inhibitory concentration (IC50) came to 7.51 ± 2.1 µM.
Same read-out and setting: for `C=CCN1CC(=O)N2[C@@H](Cc3ccc(O)cc3)C(=O)N(Cc3cccc(Br)n3)C[C@@H]2N1C(=O)NCc1ccccc1` [compound 177] the value was 2.37 ± 0.35 µM; for `C=CCN1CC(=O)N2[C@@H](Cc3ccc(O)cc3)C(=O)N(Cc3ccc(F)c(C#N)c3)C[C@@H]2N1C(=O)NCc1ccccc1` [compound 69], 0.87 ± 0.32 µM.
Regarding `C=CCN1CC(=O)N2[C@@H](Cc3ccc(O)cc3)C(=O)N(Cc3ccccc3S(C)(=O)=O)C[C@@H]2N1C(=O)NCc1ccccc1` [compound 188], the IC50 worked out at 2.67 ± 0.59 µM.
Same read-out and setting: then `C=CCN1CC(=O)N2[C@@H](Cc3ccc(O)c(Br)c3)C(=O)N(Cc3cccc4scnc34)C[C@@H]2N1C(=O)NCc1ccccc1` [compound 235], with 40.7 ± 6.4 µM; and `C=CCN1CC(=O)N2[C@@H](Cc3ccc(O)cc3)C(=O)N(Cc3cccc(C(=O)N4CCOCC4)c3)C[C@@H]2N1C(=O)NCc1ccccc1` [compound 212], with 3.62 ± 0.63 µM.
The same measure, in the same setting: for `C=CCN1CC(=O)N2[C@@H](Cc3ccc(O)cc3)C(=O)N(Cc3ccc(OC)c(Cl)c3)C[C@@H]2N1C(=O)NCc1ccccc1` [compound 117] the value was 1.44 ± 0.22 µM; for `C=CCN1CC(=O)N2[C@@H](Cc3ccc(O)cc3)C(=O)N(Cc3cncc(C(=O)OC)c3)C[C@@H]2N1C(=O)NCc1ccccc1` [compound 233], 4.98 ± 0.69 µM.
The same measure, in the same setting: then `C=CCN1CC(=O)N2[C@@H](Cc3ccc(O)cc3)C(=O)N(Cc3cccnc3-c3ccc(OC)cc3)C[C@@H]2N1C(=O)NCc1ccccc1` [compound 180], with 2.42 ± 0.47 µM; and `C=CCN1CC(=O)N2[C@@H](Cc3ccc(O)cc3)C(=O)N(Cc3cccc(-c4cccnc4)n3)C[C@@H]2N1C(=O)NCc1ccccc1` [compound 217], with 3.87 ± 0.45 µM; and `C=CCN1CC(=O)N2[C@@H](Cc3ccc(O)cc3)C(=O)N(Cc3cccc(C(=O)NCC4CCCO4)c3)C[C@@H]2N1C(=O)NCc1ccccc1` (stereo partly drawn) [compound 106], with 1.28 ± 0.1 µM.
For `C=CCN1CC(=O)N2[C@@H](Cc3ccc(O)cc3)C(=O)N(Cc3cccc(-c4cccc(C#N)c4)n3)C[C@@H]2N1C(=O)NCc1ccccc1` [compound 191], the concentration for half-maximal inhibition (IC50) was 2.81 ± 0.52 µM.
The same measure, in the same setting: then `C=CCN1CC(=O)N2[C@@H](Cc3ccc(NC=O)cc3)C(=O)N(Cc3cccc4scnc34)C[C@@H]2N1C(=O)NCc1ccccc1` [compound 50], with 0.72 ± 0.075 µM.
Same read-out and setting: for `C=CCN1CC(=O)N2[C@@H](Cc3ccc(O)cc3)C(=O)N(Cc3cccc4c(C(C)=O)cn(S(=O)(=O)c5ccc(Cl)cc5)c34)C[C@@H]2N1C(=O)NCc1ccccc1` [compound 6] the value was 0.18 ± 0.076 µM; for `C=CCN1CC(=O)N2[C@@H](Cc3ccc(O)cc3)C(=O)N(Cc3cccc(C(=O)NOC)c3)C[C@@H]2N1C(=O)NCc1ccccc1` [compound 182], 2.48 ± 0.22 µM; for `C=CCN1CC(=O)N2[C@@H](Cc3ccc(O)cc3)C(=O)N(Cc3cccc4c3ncn4C(=O)CNC(=O)OC(C)(C)C)C[C@@H]2N1C(=O)NCc1ccccc1` [compound 99], 1.17 ± 0.27 µM.
Consider `C=CCN1CC(=O)N2[C@@H](Cc3ccc(O)cc3)C(=O)N(Cc3csc4cc(NCCC)ccc34)C[C@@H]2N1C(=O)NCc1ccccc1` [compound 66], for which the IC50 came out at 0.84 ± 0.09 µM.
For the compound `C=CCN1CC(=O)N2[C@@H](Cc3ccc(O)cc3)C(=O)N(Cc3cccnc3-c3cccc(C#N)c3)C[C@@H]2N1C(=O)NCc1ccccc1` [compound 257], the IC50 was found to be 7.26 ± 1.3 µM.
For the compound `C=CCN1CC(=O)N2[C@@H](Cc3ccc(O)cc3)C(=O)N(Cc3cccc(C(=O)NN)c3)C[C@@H]2N1C(=O)NCc1ccccc1` [compound 160], the half-inhibitory concentration (IC50) was 14.2 ± 2.05 µM.
Still for that read-out and setting: for `C=CCN1CC(=O)N2[C@@H](Cc3ccc(O)cc3)C(=O)N(Cc3cccc4c(C(C)=O)cn(S(=O)(=O)c5ccc(C)cc5)c34)C[C@@H]2N1C(=O)NCc1ccccc1` [compound 2] the value was 0.084 ± 0.016 µM; for `C=CCN1CC(=O)N2[C@@H](Cc3ccc(O)cc3)C(=O)N(Cc3csc4cc(N)ccc34)C[C@@H]2N1C(=O)NCc1ccccc1` [compound 68], 0.86 ± 0.09 µM.
On the same count and under the same terms, for `C=CCN1CC(=O)N2[C@@H](Cc3ccc(O)cc3)C(=O)N(Cc3ccc(OC)c(OC)c3)C[C@@H]2N1C(=O)NCc1ccccc1` [compound 175] the value was 2.36 ± 0.57 µM.
The same measure, in the same setting: then `C=CCN1CC(=O)N2[C@@H](Cc3ccc(O)cc3)C(=O)N(Cc3cccc(OC)c3OS(=O)(=O)CCCCCCCC)C[C@@H]2N1C(=O)NCc1ccccc1` [compound 161], with 14.4 ± 2.77 µM.

Still in this experiment, the particulars now being: Homo sapiens, SW480; read-out: RGA, IC50 (μM) TopF.
Turning to `C=CCN1CC(=O)N2[C@@H](Cc3ccc(OP(=O)(O)O)cc3)C(=O)N(Cc3cccc4ccnn34)C[C@@H]2N1C(=O)NCc1ccccc1` [compound 92], the concentration for half-maximal inhibition (IC50) is 1.04 ± 0.18 µM.
In the case of `C=CCN1CC(=O)N2[C@@H](Cc3ccc(OP(=O)(O)O)cc3)C(=O)N(Cc3ccc(OC)cc3F)C[C@@H]2N1C(=O)NCc1ccccc1` [compound 216], the IC50 came to 3.8 ± 1.1 µM.
On the same count and under the same terms, then `C=CCN1CC(=O)N2[C@@H](Cc3ccc(OP(=O)(O)O)cc3)C(=O)N(Cc3cccc4c(-c5ccccc5)c[nH]c34)C[C@@H]2N1C(=O)NCc1ccccc1` [compound 22], with 0.45 ± 0.29 µM; and `C=CCN1CC(=O)N2[C@@H](Cc3ccc(O)cc3)C(=O)N(Cc3ccc4cc[nH]c4c3)C[C@@H]2N1C(=O)NCc1ccccc1` [compound 223], with 4.01 ± 0.96 µM.

The experiment is the same for the next values; noted with them: TopFlash reporter gene assay, inhibition of Wnt signaling; read-out: RGA, IC50 (μM) TopF.
With `C=CCN1CC(=O)N2[C@@H](Cc3ccc(O)cc3)C(=O)N(Cc3ccc(F)c4scnc34)C[C@@H]2N1C(=O)NCCc1ccccc1` [compound 245], the IC50 is 6.19 ± 0.73 µM.
